The target of test [1] is MmCobD (MM2060 protein, full length) (Methanosarcina mazei, UniProt Q8PVB1). Put plainly: ADP-Glo ATPase inhibition assay. The class given is biochemical. The settings on record: MmCobD 6 μM, HEPES pH 7.5. In general terms: ADP-Glo turns the ADP formed in a reaction into a luminescent signal.
In a further test the target is T1, SeCobD (Salmonella enterica, UniProt P97084).
T1 sequence (P97084 1-364): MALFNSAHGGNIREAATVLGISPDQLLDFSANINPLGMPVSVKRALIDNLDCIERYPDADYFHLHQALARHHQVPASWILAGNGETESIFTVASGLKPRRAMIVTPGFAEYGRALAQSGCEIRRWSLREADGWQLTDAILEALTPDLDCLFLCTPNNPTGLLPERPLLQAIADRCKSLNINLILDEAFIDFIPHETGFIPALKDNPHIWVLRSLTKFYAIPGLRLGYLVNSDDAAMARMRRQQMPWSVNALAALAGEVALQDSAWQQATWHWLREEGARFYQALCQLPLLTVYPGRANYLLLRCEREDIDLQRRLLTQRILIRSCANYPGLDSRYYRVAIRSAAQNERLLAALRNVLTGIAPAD
Put plainly: […]-NMR and […] TLC decarboxylation assay. The conditions noted are these: decarboxylated to (R)-1-aminopropan-2-ol O-phosphate; pH 8.5. The class given is biochemical.

SMILES strings stand for the structures.

As to `[O]=[V]([OH])([OH])[OH]` [Na3VO4], the inhibition entry in test [1] (inhibitor 1 mM, weakest of the series) is recorded as “MmCobD was inhibited in the following order from most inhibitory to least: BeF2>ADP>ADP-γ-S>PPPi>Na3VO4”.
Regarding `O=P(O)(O)OP(=O)(O)OP(=O)(O)O` [PPPi], the inhibition result in test [1] (inhibitor 10 mM) was “MmCobD was inhibited in the following order from most inhibitory to least: BeF2>ADP>ADP-γ-S>PPPi>Na3VO4”.
Consider `C[C@@H](OP(=O)(O)O)[C@H](N)C(=O)O` [L-Thr-P], for which, on SeCobD, the “13C-NMR and 14C TLC decarboxylation assay” value was “conversion of L-Thr-P (peaks A, B, C, D; red) to AP-P”.

The record behind these values is paper PMC6143143 (Biochemistry, 2018).
